Experimental findings from patent US11214803B2, “Modulators of YAP1 expression” (Ionis Pharmaceuticals, Inc., priority 2019, dated 2022) are described below.

For series [1], the system named is Yap1 mRNA. Nature of the series: Dose-dependent inhibition of human Yap1 in A-431 cells (Example 7, 10,000 cells per well, RTS36584). The class given is cell-based. The conditions noted are these: free uptake. Put shortly:
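Yap1 mRNA was expressed as percent of untreated control after normalization to total RNA (RIBOGREEN), and IC50 was derived by log/linear linear regression. The read-out used primer-probe set RTS36584 roughly 48 hours after free-uptake dosing of oligonucleotides into A-431 cells (10,000 cells/well).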

Series [2] in a line: Tolerability in CD-1 mice, plasma chemistry markers (Example 18). Particulars: male CD-1 mice, 50 mg/kg s.c. twice a week (total of 9 treatments), day 34. The class given is in vivo. The method, then:
CD-1 mice were treated with modified oligonucleotides selected from studies described above and evaluated for changes in the levels of various plasma chemistry markers.
(§1) Groups of four male CD-1 mice at 5-6 weeks of age (obtained from Charles River) were injected subcutaneously twice a week for four weeks (for a total of 9 treatments) with 50 mg/kg of modified oligonucleotides. One group of male CD-1 mice was injected with PBS. Mice were euthanized on day 34 post start of treatment (24 hours following the final administration).

The nature of series [3]: Tolerability in CD-1 mice, body and organ weights (Example 18). The class given is in vivo. The conditions noted are these: male CD-1 mice, 50 mg/kg s.c. twice a week (total of 9 treatments), end of study (day 34). The method, then:
as §1
Body weights of CD-1 mice were measured at the end of the study, and the average body weight for each group is presented in the table below. Modified oligonucleotides that caused any changes in organ weights outside the expected range for modified oligonucleotides were excluded from further studies.

For series [4] the following is noted: rat, in vivo, sc, 50 mg/kg.
Protocol: Male Sprague-Dawley rats were maintained on a 12-hour light/dark cycle and fed ad libitum with Purina normal rat chow. Groups of 4 Sprague-Dawley rats each were weekly injected subcutaneously with 50 mg/kg of Ionis oligonucleotide for 6 weeks (total 7 doses). Forty-eight hours after the last dose, the rats were euthanized; and organs, urine and plasma were harvested for further analysis.
To evaluate the effect of Ionis oligonucleotides on kidney function, urinary levels of total protein and creatinine were measured using an automated clinical chemistry analyzer (Hitachi Olympus AU400c, Melville, N.Y.).
Series [5] concerns Yap1 mRNA. Nature of the series: Antisense inhibition of human Yap1 in A-431 cells by cEt gapmers, single dose (Example 3, RTS36584). Type of series: cell-based. The method in brief: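 A-431 cells were treated by free uptake with 2,000 nM modified oligonucleotide (3-10-3 cEt gapmers, full phosphorothioate, 5-methylcytosines) for about 48 hours. Yap1 mRNA was quantified by real-time RT-PCR, normalized to RiboGreen total RNA, and expressed as % of untreated control; asterisked values mark oligonucleotides targeting the amplicon region.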

Series [6] has as its system Yap1 mRNA. Nature of the series: Yap1 mRNA levels in SNU449 xenograft tumors, alone and in combination with sorafenib (second Example 30). Particulars: SNU449 xenograft mice, oligonucleotide 50 mg/kg, sorafenib 30 mg/kg orally, tumors collected day 119 post implantation, relative to PBS. Type of series: in vivo, human. As for the experimental part:
Modified oligonucleotides described in the studies above were tested in a hepatocellular carcinoma SNU449 xenograft tumor model. In addition to testing the modified oligonucleotide by itself, combination therapy with sorafenib was also tested. A control oligonucleotide 792169, described herein above, was also tested.
Five million SNU449 cells in 30% matrigel were implanted subcutaneously into the fatpads of female NOD.Cg-Prkdcscid II2rgtmlWjl/SzJ mice (from Jackson Laboratory) at 4-6 weeks of age. 43 days post implantation (when tumors had reached approximately 100 mm^3 in size), groups of eight mice each were administered with 50 mg/kg modified oligonucleotide daily for 10 days (loading dose), following which they were administered with 50 mg/kg modified oligonucleotide four times a week for one week, following which they were dosed with 50 mg/kg modified oligonucleotide thrice weekly until the end of the study. […] Animals were sacrificed, and tumors were collected on day 119 post implantation.
Yap1 mRNA knockdown in tumors was measured by RT-qPCR as previously described using the Human Yap1 primer-probe set RTS4814. Yap1 mRNA levels were normalized to actin-beta content, as measured by primer probe set RTS5002. Results are presented in the tables below as percent control of the amount of Yap1 mRNA relative to PBS treated animals (% control).
Background: Xenograft models place foreign cells or tissue in a host animal.

A short description of series [7]: Tolerability in Sprague-Dawley rats, plasma chemistry markers (Example 21). Particulars: male Sprague-Dawley rats, 50 mg/kg s.c. weekly for 6 weeks (7 doses), 48 hours after last dose. Type of series: in vivo. The method, then:
Sprague-Dawley rats are a multipurpose model used for safety and efficacy evaluations. The rats were treated with Ionis modified oligonucleotides from the studies described in the Examples above and evaluated for changes in the levels of various plasma chemistry markers.

Marks after values point to notes of the source that are not given here. Strand notation (5' to 3'): a small letter for the sugar, then the base; units joined by * are phosphorothioate-linked, units joined directly phosphodiester-linked; [ ] holds rarer units or linkages, { } end groups; capitals alone tell only the bases. k = constrained ethyl (cEt); [5mC] = 5-methylcytosine; d = 2'-deoxy (DNA) A value given as a limit tells only on which side of the number the result lay.

In the case of “715487 (kA*kT*kT*dA*d[5mC]*dT*dT*d[5mC]*dA*dT*dA*dG*d[5mC]*kT*kT*kA) [compound 715487]”, the “Yap1 mRNA, % UTC” value with Yap1 mRNA [1] (15.6 nM, A-431 cells, 10,000 cells per well, approximately 48 hours) was 77 % UTC; in the series on Yap1 mRNA [1] (62.5 nM, A-431 cells, 10,000 cells per well, approximately 48 hours), 44 % UTC; with Yap1 mRNA [1] (4000.00 nM, A-431 cells, 10,000 cells per well, approximately 48 hours), 4 % UTC. Moreover, the IC50 (as a rule, the point on the concentration scale where inhibition reaches its midpoint) with Yap1 mRNA [1] (A-431 cells, approximately 48 hours, linear regression on log/linear plot) was 100 nM.

On to “1076453 (GTAATATTGCAATCTG; 3-10-3 cEt gapmer, further chemistry not given here) [compound 1076453]”, for which, in series [2], the ALT was determined as 56 U/L, the AST worked out at 113 U/L, the BUN came out at 20 mg/dL and the TBIL was determined as 0.24 mg/dL. In series [3], this substance gave a Kidney weight of 0.56 g, a Liver weight of 1.91 g, a Spleen weight of 0.20 g and a body weight of 38 g. The “URINE P/C ratio (total protein to creatinine ratio)” value in series [4] turned out to be 5.

The substance “958499 (ATTAGAGTATGTGGCA; 3-10-3 cEt gapmer, further chemistry not given here) [compound 958499]” gave an ALT in series [2] of 79 U/L. The substance further registered an AST in series [2] of 88 U/L. This substance yielded a BUN in series [2] of 24 mg/dL. The TBIL in series [2] is reported as 0.18 mg/dL. Moreover, the “YAP1 (% UTC)” value with Yap1 mRNA [5] (Table 26, Yap1 mRNA by 3-10-3 cEt gapmers targeting SEQ ID NO.: 1, and 2, percent of untreated control) is reported as 1 % UTC; in the series with Yap1 mRNA [5] (Table 27, Yap1 mRNA by 3-10-3 cEt gapmers targeting SEQ ID NO.: 1, and 2, percent of untreated control) it was 2 % UTC; in the series on Yap1 mRNA [5] (Table 28, Yap1 mRNA as percent of untreated control, 3-10-3 cEt gapmers targeting SEQ ID NO.: 1, and 2), 2 % UTC; in the series on Yap1 mRNA [5] (Table 29, Yap1 mRNA as percent of untreated control, 3-10-3 cEt gapmers targeting SEQ ID NO.: 1, and 2), 2 % UTC; with Yap1 mRNA [5] (Table 34, Yap1 mRNA as percent of untreated control, 3-10-3 cEt gapmers targeting SEQ ID NO: 1 and 2, single dose) it was 1 % UTC; in the series on Yap1 mRNA [5] (Table 35, Yap1 mRNA as percent of untreated control, 3-10-3 cEt gapmers targeting SEQ ID NO: 1 and 2, single dose) it was 2 % UTC. Also, the “Yap1 mRNA, % UTC” value is 54 % UTC in the series with Yap1 mRNA [1] (Table 61, 15.6 nM, A-431 cells 10,000 cells per well, 48 hours); 12 % UTC with Yap1 mRNA [1] (Table 61, 62.5 nM, A-431 cells 10,000 cells per well, 48 hours); 1 % UTC with Yap1 mRNA [1] (Table 61, 4000.00 nM, A-431 cells 10,000 cells per well, 48 hours). In the series with Yap1 mRNA [1] (Table 61, A-431 cells 10,000 cells per well), this substance displayed an IC50 of less than 10 nM. Also, the Kidney weight in series [3] was found to be 0.57 g. In addition, in series [3], the Liver weight was determined as 2.20 g. Moreover, in series [3], the Spleen weight turned out to be 0.22 g. This substance had a body weight in series [3] of 39 g. Besides, the “URINE P/C ratio (total protein to creatinine ratio)” value in series [4] was 5.

As to “958499 (kA*kT*kT*dA*dG*dA*dG*dT*dA*dT*dG*dT*dG*kG*k[5mC]*kA) [Compound 958499]”, in the series with Yap1 mRNA [5] (Table 12, A-431 cells, 5,000 cells per well, free uptake, 2,000 nM modified oligonucleotide, approx. 48 hours, RTS36584, normalized to RIBOGREEN, Yap1 mRNA relative to untreated control cells), the “YAP1 (% UTC)” value turned out to be 1 % UTC.

As to “CGCCGATAAGGTACAC (cEt gapmer, phosphorothioate backbone, further chemistry not given here) [ION 792169, reference compound]”, the “Yap1 mRNA levels in tumors” value in the series with Yap1 mRNA [6] turned out to be 90 % control.

On to “1198439 (AGTGTATGTCAGAAGA; sugar, 5-methylcytosine, phosphorothioate modifications, further chemistry not given here) [compound 1198439]”, for which, in series [7], the ALT is 54* U/L, the AST is 94* U/L, the BUN was 22* mg/dL and the TBIL is reported as 0.15* mg/dL.

On to “1198440 (AAGTGTATGTCAGAAG; cEt, 2'-MOE, 5-methylcytosine, phosphorothioate modifications, further chemistry not given here) [compound 1198440]”, for which, in the series on Yap1 mRNA [6], the “Yap1 mRNA levels in tumors” value was 34 % control. For the same substance, in series [7], the ALT is reported as 58** U/L, the AST is reported as 108** U/L, the BUN is on record as 20** mg/dL and the TBIL is recorded as 0.17** mg/dL.
